{
  "source": "patent US7776828B2",
  "about": "“Radiation therapy methods” (University of Southern California, priority 1998, dated 2010)",
  "key": {"AT2 receptor": {"tested_on": "AT2 receptor", "settings": "cited from earlier work"}, "[1]": {"tested_on": "cultured cells that are involved in wound repair", "settings": "cited from earlier work"}, "rabbit corneal eye": {"tested_on": "rabbit corneal eye", "settings": "rabbit corneal eye model; cited from earlier work"}, "[2]": {"tested_on": "chick chorioallantoic membrane", "settings": "chick chorioallantoic membrane model; cited from earlier work"}, "wound tissue": {"tested_on": "wound tissue", "settings": "application to wound tissue; cited from earlier work"}, "Female C57B1/6 mice [3]": {"tested_on": "Female C57B1/6 mice", "experiment": "Post-irradiation mouse mortality/survival (600 cGy total body irradiation)", "format": "in vivo", "description": "(§1) Female C57B1/6 mice (Jackson Labs, Bar Harbor, Me.) were irradiated with 600 cGy total body irradiation. Subcutaneous injection with either AII (10 μg/kg/day or 100 μg/kg/day) or saline (placebo) was initiated two days before (−day 2), on the day of (day 0) or 2 days after (+day 2) irradiation and continued until the animals succumbed to the irradiation or were necropsied. At various times after irradiation, the mice were anaesthetized with Metofane (Pittman-Moore Animal Health, NZ) and bled via the retro-orbital sinus. Red blood cells were lysed with 0.3% acetic acid and the number of white blood cells was determined by counting with a hemacytometer. […] Furthermore, AII administration at all time periods tested increased the number of circulating white blood cells (FIGS. 4-6)."}, "C57B1/6 mice": {"tested_on": "C57B1/6 mice", "experiment": "Survival and white blood cell number of mice receiving bone marrow transplantation after lethal irradiation", "format": "in vivo", "description": "Donor C57B1/6 mice (female, 6-8 weeks old) were irradiated with 600 cGy total body irradiation. Starting on the day of irradiation, the mice received either saline (0.1 ml) or 20 μg/ml angiotensin II (0.1 ml, 100 μg/kg) subcutaneously for fourteen days. At the end of this period, the bone marrow was harvested from the femur by flushing and the number of viable nucleated cells determined by counting under a light microscope on a hemacytometer in the presence of trypan blue.\nThese donor bone marrow cells were then injected intravenously into recipient mice (female C57B1/6, 6-8 weeks old) that had been lethally irradiated (900 cGy total body irradiation) at two concentrations: 1×10^6 or 1×10^5 cells per mouse. After injection, the recipient mice received either saline or 100 μg/kg AII subcutaneously until death or termination. The study design in its entirety is as follows:\nThe survival of the mice and the number of circulating white blood cells were measured as a function of time post-bone marrow transplantation."}, "Female C57B1/6 mice [4]": {"tested_on": "Female C57B1/6 mice", "experiment": "Blood cell recovery after irradiation (white blood cells, megakaryocytes, monocytes, neutrophils, lymphocytes)", "format": "in vivo", "description": "as §1"}, "[5]": {"experiment": "Effectiveness testing of AII fragments (test not specified)", "settings": "test not described"}, "[6]": {"settings": "recipients 900 cGy, AII 100 μg/kg s.c. to donor and/or recipient"}},
  "note": "Entries after “also recorded” stand apart in the source; their conditions may differ. Non-standard residues stand in square brackets, D forms with d. No end group written: not given here. Phe(4-NH2) = Nc1ccc(C[C@H](N)C(=O)O)cc1",
  "data": [
    {"substance": "Asp-Arg-Val-Tyr-Ile-His-Pro-Phe (DRVYIHPF) [AII]", "values": [
      {"measurement": "affinity for AT2 than AT1", "setting": "AT2 receptor; selectivity AT2 over AT1", "result": 100, "unit": "times"},
      {"measurement": "mitogenesis and chemotaxis", "setting": "[1]", "result": "increases"},
      {"measurement": "release of growth factors and extracellular matrices", "setting": "[1]", "result": "increases"},
      {"measurement": "angiogenic activity", "setting": "rabbit corneal eye", "result": "angiogenic"},
      {"measurement": "angiogenic activity", "setting": "[2]", "result": "angiogenic"},
      {"measurement": "rate of wound healing", "setting": "wound tissue", "result": "significantly increases"},
      {"measurement": "survival after irradiation", "setting": "Female C57B1/6 mice [3]; AII 10 or 100 μg/kg/day s.c. starting on the day of irradiation (day 0), FIG. 2", "result": "substantially increased survival"},
      {"measurement": "survival after irradiation", "setting": "Female C57B1/6 mice [3]; AII 10 or 100 μg/kg/day s.c. starting two days after irradiation (+day 2), FIG. 3", "result": "substantially increased survival"},
      {"measurement": "protection against mortality resulting from irradiation", "setting": "Female C57B1/6 mice [3]; AII 10 or 100 μg/kg/day s.c. starting two days prior to irradiation (-day 2), FIG. 1", "result": "did not protect against mortality"},
      {"measurement": "number of circulating white blood cells post-bone marrow transplantation", "setting": "C57B1/6 mice; [6]", "result": "increased"},
      {"measurement": "survival post-bone marrow transplantation", "setting": "C57B1/6 mice; [6]", "result": "increased"},
      {"measurement": "benefit (survival and white blood cell number)", "setting": "C57B1/6 mice; treatment of both the donor bone marrow cells and the recipient mice with AII", "result": "greatest benefit"},
      {"measurement": "number of megakaryocytes", "setting": "Female C57B1/6 mice [4]; after 600 cGy irradiation, FIGS. 7-9", "result": "increased"},
      {"measurement": "number of monocytes", "setting": "Female C57B1/6 mice [4]; after 600 cGy irradiation, FIGS. 10-12", "result": "increased"},
      {"measurement": "number of neutrophils", "setting": "Female C57B1/6 mice [4]; after 600 cGy irradiation, FIGS. 13-15", "result": "increased"},
      {"measurement": "number of lymphocytes", "setting": "Female C57B1/6 mice [4]; after 600 cGy irradiation, FIGS. 16-18", "result": "increased"},
      {"measurement": "number of circulating white blood cells", "setting": "Female C57B1/6 mice [4]; all time periods tested (-day 2, day 0, +day 2), 600 cGy, FIGS. 4-6", "result": "increased"}
    ]},
    {"substance": "Asp-Arg-Val-Tyr-Ile-Xaa-Pro-Phe (DRVYI[Phe(4-NH2)]PF) [p-aminophenylalanine6-AII, reference compound]", "values": [
      {"measurement": "binding characteristics", "setting": "AT2 receptor; compared with AT2 antagonists in the experimental models tested", "result": "comparable to AT2 antagonists"}
    ]},
    {"substance": "His-Pro-Phe (HPF) [AII(6-8)]", "values": [
      {"measurement": "effectiveness", "setting": "[5]", "result": "not to be effective"}
    ]},
    {"substance": "Tyr-Ile-His-Pro-Phe (YIHPF) [AII(4-8)]", "values": [
      {"measurement": "effectiveness", "setting": "[5]", "result": "not to be effective; also recorded: ineffective"}
    ]}
  ]
}
